Reference: US20100168406A1, “USE OF GINSENOSIDE Rb2 MONOMER IN THE MANUFACTURE OF MEDICAMENTS FOR THROMBOLYSIS” (priority 2006, published 2010)

Legend:
[1] = test system: blood clots; assay: In vitro thrombolytic effect on rat blood clots (6 h, 37° C.); format: biochemical, rats
Procedure: Rats used in the study were anaesthetized by urethane. Blood samples were taken from abdominal aorta, placed in plastic tubes, and were removed after 24 hours of coagulation. The blood clot was semi-blotted with filter paper and cut into pieces. 90 to 120 mg blood clots were accurately weighed and put into test tubes, to which NS, an Rb2 solution of 200 μg/ml, 100 μg/ml, or 50 μg/ml, or a urokinase solution of 50 U/ml, in a volume of 1 ml was added, respectively, and were then placed into a thermostatic horizontal shaking bath at a temperature of 37° C. and with a shaking frequency of 90 times/min for 6 hours. The undissolved blood clots were removed and weighed after semi-blotting with filter paper. The relative thrombolysis rate was calculated. SPSS 10.0 statistical software was used to perform t test among groups.

[2] = test system: thrombi; assay: In vitro thrombolytic effect on capillary thrombi (24 h, 37° C.); format: biochemical, Wistar rats
Procedure: Nine female Wistar rats were used. Blood samples were taken from postorbital venous plexus using hard neutral glass capillary, 4 capillaries for each rat and 36 capillaries in total. The capillaries which contained the blood samples were left over night and the thrombi were then removed. The 4 thrombus samples of each rat were placed into test tubes containing 1 ml NS solution, 1000 U urokinase in 1 ml NS solution, 1 mg Rb2 (80%) in 1 ml NS solution and 1 mg Rb2 (98%) in 1 ml NS solution, respectively. All the test tubes were placed into a water bath at a temperature of 37° C. with shaking at an interval of 30 minutes. 24 hours later, the solutions were decanted, the remaining thrombi were weighed and the thrombolysis rate was calculated. Thrombolysis rate=(starting weight of thrombus−remaining weight of thrombus)/starting weight of thrombus×100%

[3] = test system: arteriovenous shunt thrombus in rats; assay: Arteriovenous shunt thrombosis method, in vivo thrombolytic effect; parameters: species or system Winstar rats; settings: femoral vein injection given twice
Procedure: Arteriovenous shunt thrombosis method was applied in Winstar rats to observe the inhibition of thrombosis in rats. Under intraperitoneal anesthesia with mebumal sodium, a polyethylene tube penetrated by a silk thread was placed between the right common carotid artery and the left external jugular vein, to allow blood flow through the thread for 15 min. Upon formation of a thrombus, the test agents were injected into femoral vein, and again after an interval of 15 min, both of the same dosage. 45 min post administration, the silk thread was removed rapidly and weighed. Subtraction of the weight of silk thread from the total weight yielded the weight of the thrombus (mg). The thrombus was dried in an oven at a temperature of 60° C. for 4 hours, so as to give the dry weight (mg) of the thrombus.

[4] = test system: Wistar rats; assay: Reperfusion injury after bilateral common carotid artery clamping, morphological examination of cerebral tissue; format: in vivo; settings: Rb2 purity 90%, 10 mg/kg iv after reperfusion, brains examined 1 hour after administration
Procedure: Male Wistar rats weighing 300±20 g were supplied by the Animal Office of Tianjin Institute of Pharmaceutical Research.
Rb2 was prepared with NS in a ratio of […] for intravenous injection in rats before use.
30 rats were randomly divided into 3 groups with 10 rats in each group. The sham operation group received (iv) physiological saline, the model group received (iv) physiological saline and the Rb2 (with a purity of 90%) group received (iv) 10 mg/kg. All groups were administered through intravenous injection after reperfusion injury.
The rats were weighed at the time of experiment. They were anaesthetized by urethane (lg/kg) through intraperitoneal injection, laid on their back on the operation table, and cut in the middle of the neck. The common carotid arteries on both sides were dissected and clamped using small-sized artery clamps. 2 hours later, the clamps were loosened to restore blood supply, and the animals were given intravenous administration immediately. The rats were decapitated 1 hour after the administration, the brains were removed and placed into a 10% formaldehyde solution for fixation, followed by morphological examination of the cerebral tissue.

[5] = test system: mice; assay: Effect of Rb2 (~60%) on auricle microcirculation in mice; format: in vivo; settings: 120 mg/10 ml/kg intragastric for 3 days, 30 minutes after last administration
Procedure: 20 mice, 10 male and 10 female, were randomly divided into the control group and the administration group. Animals in the administration group received intragastric administration of Rb2 at 120 mg/10 ml/kg for 3 days. Animals in the control group were given water of the same volume. The calibers, flow rate and flow pattern of V3 grade arteriole and venule were determined 30 minutes after the last administration. The data obtained from the study was subjected to t-test between groups.

[6] = test system: KunMing mice; assay: Degree of cardiomyopathy (HE staining of heart) in Isoprel-induced acute myocardial necrosis; format: in vivo; settings: 40 mg/kg intraperitoneal, Isoprel-treated mice, of 10 animals
Procedure: (§1) 20 KunMing mice, 10 male and 10 female, were randomly divided into the control group and the administration group. The control group received intraperitoneal injection of physiological saline from Day 1 to Day 7 and subcutaneous injection of Isoprel at a dosage of 0.3 ml (7.5 mg/kg) on Day 5 and Day 6. The ginsenoside monomer Rb2 administration group received intraperitoneal injection of ginsenoside monomer Rb2 at a dosage of 40 mg/kg for 4 consecutive days; subcutaneous injection of Isoprel at a dosage of 0.3 ml (7.5 mg/kg) followed by intraperitoneal injection of ginsenoside monomer Rb2 at a dosage of 40 mg/kg on Day 5; intraperitoneal injection of ginsenoside monomer Rb2 at a dosage of 40 mg/kg followed by subcutaneous injection of Isoprel on Day 6. On Day 7, 30 min after intraperitoneal injection of ginsenoside monomer Rb2, the auricle microcirculation was determined. The data obtained from the study were subjected to t-test between groups.
After the determination of auricle microcirculation, animals were sacrificed and heart samples were removed for HE staining for microscopic examination. The samples were classified according to the grading standards for cardiomyopathy.

[7] = test system: KunMing mice; assay: Auricle microcirculation in mice with Isoprel-induced acute myocardial necrosis; format: in vivo; settings: 40 mg/kg intraperitoneal Day 1-7, Isoprel 7.5 mg/kg sc Day 5 and 6, 30 min after last dose
Procedure: as §1

Urokinase [reference compound]
Relative thrombolysis % ([1]; 50 U/ml): 32.7 ± 10.0 % | Weight of blood clot After lysis ([1]; 50 U/ml): 73.8 ± 11.3 mg | Final weight of thrombus ([2]; 1000 U/ml in NS): 0 mg | Thrombolysis rate % ([2]; 1000 U/ml in NS): 100% | Dry weight of thrombus ([3]; 5000 U (5000 U/kg)): 6.62 ± 1.85 mg | Inhibition % (dry weight of thrombus) ([3]; 5000 U (5000 U/kg)): 34.26% | Inhibition % (wet weight of thrombus) ([3]; 5000 U (5000 U/kg)): 25.37% | Wet weight of thrombus ([3]; 5000 U (5000 U/kg)): 25.37 ± 6.37 mg

CC(C)=CCC[C@](C)(O[C@@H]1O[C@H](CO[C@@H]2OC[C@H](O)[C@H](O)[C@H]2O)[C@@H](O)[C@H](O)[C@H]1O)[C@H]1CC[C@]2(C)[C@@H]1[C@H](O)C[C@@H]1[C@@]3(C)CC[C@H](O[C@@H]4O[C@H](CO)[C@@H](O)[C@H](O)[C@H]4O[C@@H]4O[C@H](CO)[C@@H](O)[C@H](O)[C@H]4O)C(C)(C)[C@@H]3CC[C@]12C [Rb2 (98%), ginsenoside Rb2]
Final weight of thrombus ([2]; 1 mg/ml in NS): 5.5 ± 3.2 mg | Thrombolysis rate % ([2]; 1 mg/ml in NS): 71.5%

CC(C)=CCC[C@](C)(O[C@@H]1O[C@H](CO[C@@H]2OC[C@H](O)[C@H](O)[C@H]2O)[C@@H](O)[C@H](O)[C@H]1O)[C@H]1CC[C@]2(C)[C@@H]1[C@H](O)C[C@@H]1[C@@]3(C)CC[C@H](O[C@@H]4O[C@H](CO)[C@@H](O)[C@H](O)[C@H]4O[C@@H]4O[C@H](CO)[C@@H](O)[C@H](O)[C@H]4O)C(C)(C)[C@@H]3CC[C@]12C [Rb2, ginsenoside Rb2]
Pathological changes of cerebral edema and cerebral ischemia vs model control group [4]: alleviated remarkably | Input branch [5]: 36.42 ± 0.81[…] um/s | Output branch [5]: 65.77 ± 3.14 um/s | Degree of cardiomyopathy +++, number of animals [6]: 1 | Degree of cardiomyopathy ++, number of animals [6]: 2 | Degree of cardiomyopathy +, number of animals [6]: 3 | Degree of cardiomyopathy −, number of animals [6]: 4 | Relative thrombolysis % ([1]; 50 μg/ml): 27.4 ± 8.3 % | Weight of blood clot After lysis ([1]; 50 μg/ml): 78.9 ± 17.8 mg | Relative thrombolysis % ([1]; 100 μg/ml): 28.0 ± 9.1 % | Weight of blood clot After lysis ([1]; 100 μg/ml): 81.4 ± 13.4 mg | Relative thrombolysis % ([1]; 200 μg/ml): 27.1 ± 9.1 % | Weight of blood clot After lysis ([1]; 200 μg/ml): 81.8 ± 13.4 mg | Thrombolysis rate % ([2]; 1 mg/ml in NS, listed as Ginsenoside monomer Rb2): ≥ 70% | Blood flow velocity [7]: 238 ± 22.59 um/s | Caliber of artery [7]: 39.08 ± 1.80 um | Caliber of vein [7]: 59.9 ± 3.58 um | Dry weight of thrombus ([3]; Rb2 purity 93.9%, 2.5 mg/kg): 8.50 ± 1.91 mg | Inhibition % (dry weight of thrombus) ([3]; Rb2 purity 93.9%, 2.5 mg/kg): 15.59% | Inhibition % (wet weight of thrombus) ([3]; Rb2 purity 93.9%, 2.5 mg/kg): 8.71% | Wet weight of thrombus ([3]; Rb2 purity 93.9%, 2.5 mg/kg): 31.75 ± 8.54 mg | Dry weight of thrombus ([3]; Rb2 purity 93.9%, 5 mg/kg): 6.60 ± 1.35 mg | Inhibition % (dry weight of thrombus) ([3]; Rb2 purity 93.9%, 5 mg/kg): 34.46% | Inhibition % (wet weight of thrombus) ([3]; Rb2 purity 93.9%, 5 mg/kg): 34.73% | Wet weight of thrombus ([3]; Rb2 purity 93.9%, 5 mg/kg): 22.70 ± 4.94 mg | Dry weight of thrombus ([3]; Rb2 purity 93.9%, 10 mg/kg): 6.87 ± 1.73 mg | Inhibition % (dry weight of thrombus) ([3]; Rb2 purity 93.9%, 10 mg/kg): 31.72% | Inhibition % (wet weight of thrombus) ([3]; Rb2 purity 93.9%, 10 mg/kg): 23.43% | Wet weight of thrombus ([3]; Rb2 purity 93.9%, 10 mg/kg): 26.63 ± 5.04 mg
